Assay results: BindingDB's records for doi:10.1021/jm00177a009 (1980)

What was measured:
DNA polymerase beta = DNA polymerase beta (Mus musculus, UniProt Q8K409); assay: ChEBML_50773
Description: Ability to inhibit mouse beta DNA polymerase

Gag-Pol polyprotein = Gag-Pol polyprotein (Woolly monkey sarcoma virus, UniProt P03359); assay: ChEBML_196792
Description: Ability to inhibit simian sarcoma virus reverse transcriptase

Sequence of Gag-Pol polyprotein (P03359 642-1310 limits assumed): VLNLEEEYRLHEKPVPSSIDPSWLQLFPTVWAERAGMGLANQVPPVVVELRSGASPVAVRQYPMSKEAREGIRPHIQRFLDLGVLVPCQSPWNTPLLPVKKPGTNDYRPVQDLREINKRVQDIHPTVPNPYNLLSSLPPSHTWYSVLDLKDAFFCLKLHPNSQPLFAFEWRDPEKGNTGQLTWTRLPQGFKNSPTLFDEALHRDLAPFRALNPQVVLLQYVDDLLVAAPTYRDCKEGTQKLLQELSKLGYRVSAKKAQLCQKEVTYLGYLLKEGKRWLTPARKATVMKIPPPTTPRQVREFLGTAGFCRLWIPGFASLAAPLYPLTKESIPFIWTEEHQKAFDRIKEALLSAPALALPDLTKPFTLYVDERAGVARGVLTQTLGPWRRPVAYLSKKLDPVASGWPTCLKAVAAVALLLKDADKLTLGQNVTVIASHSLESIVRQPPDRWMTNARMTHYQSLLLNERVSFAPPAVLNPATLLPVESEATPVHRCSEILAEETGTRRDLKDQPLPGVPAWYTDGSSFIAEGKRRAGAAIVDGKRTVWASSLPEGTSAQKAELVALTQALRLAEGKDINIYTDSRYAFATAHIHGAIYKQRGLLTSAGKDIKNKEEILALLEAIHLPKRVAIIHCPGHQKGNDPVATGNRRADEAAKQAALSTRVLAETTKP

IC50 (DNA polymerase beta) [µM] | IC50 (Gag-Pol polyprotein) [µM] | Compound
150 |  | COC1/C=C/OC2(C)Oc3c(C)c(O)c4c(O)c(c(/C=N/N5CCN(C)CC5)cc4c3C2=O)NC(=O)/C(C)=C\C=C\C(C)C(O)C(C)C(O)C(C)C(OC(C)=O)C1C (stereo not given) [2,15,17,29-tetrahydroxy-11-methoxy-3,7,12,14,16,18,22-heptamethyl-26-(4-methylhexahydro-1-pyrazinyliminomethyl)-6,23-dioxo-8,30-dioxa-24-azatetracyclo[23.3.1.14,7.05,28]triaconta-1(28),2,4,9,19,21,25(29),26-octaen-13-yl acetate]
240 |  | COC1/C=C/OC2(C)Oc3c(C)c(O)c4c(O)c(c(/C=N/N5CCCC5)cc4c3C2=O)NC(=O)/C(C)=C\C=C\C(C)C(O)C(C)C(O)C(C)C(OC(C)=O)C1C (stereo not given) [2,15,17,29-tetrahydroxy-11-methoxy-3,7,12,14,16,18,22-heptamethyl-26-Methylene-pyrrolidin-1-yl-amino-6,23-dioxo-8,30-dioxa-24-azatetracyclo[23.3.1.14,7.05,28]triaconta-1(28),2,4,9,19,21,25(29),26-octaen-13-yl acetate]
120 |  | COc1cccc(CN2CCN(/N=C/c3cc4c5c6c(C)c(O)c4c(O)c3NC(=O)/C(C)=C\C=C\C(C)C(O)C(C)C(O)C(C)C(OC(C)=O)C(C)C(OC)/C=C/OC(C)(O6)C5=O)CC2)c1 (stereo not given) [2,15,17,29-tetrahydroxy-11-methoxy-3,7,12,14,16,18,22-heptamethyl-26-[4-(3-Methoxy-benzyl)-piperazin-1-yl]-methylene-amino-6,23-dioxo-8,30-dioxa-24-azatetracyclo[23.3.1.14,7.05,28]triaconta-1(28),2,4,9,19,21,25(29),26-octaen-13-yl acetate]

More lines, now with the values behind:

Compound | IC50 (DNA polymerase beta) [µM] | IC50 (Gag-Pol polyprotein) [µM]
COC1/C=C/OC2(C)Oc3c(C)c(O)c4c(O)c(c(O)cc4c3C2=O)NC(=O)/C(C)=C\C=C\C(C)C(O)C(C)C(O)C(C)C(OC(C)=O)C1C (stereo not given) [2,15,17,26,29-pentahydroxy-11-methoxy-3,7,12,14,16,18,22-heptamethyl-6,23-dioxo-8,30-dioxa-24-azatetracyclo[23.3.1.14,7.05,28]triaconta-1(28),2,4,9,19,21,25(29),26-octaen-13-yl acetate] | 370 | 
COC1/C=C/OC2(C)Oc3c(C)c(O)c4c(O)c(ccc4c3C2=O)NC(=O)/C(C)=C\C=C\C(C)C(O)C(C)C(O)C(C)C(OC(C)=O)C1C (stereo not given) [2,15,17,29-tetrahydroxy-11-methoxy-3,7,12,14,16,18,22-heptamethyl-6,23-dioxo-8,30-dioxa-24-azatetracyclo[23.3.1.14,7.05,28]triaconta-1(28),2,4,9,19,21,25(29),26-octaen-13-yl acetate] | 1100 | 370
CCN(CC)Cc1cc2c3c4c(C)c(O)c2c(O)c1NC(=O)/C(C)=C\C=C\C(C)C(O)C(C)C(O)C(C)C(OC(C)=O)C(C)C(OC)/C=C/OC(C)(O4)C3=O (stereo not given) [26-diethylaminomethyl-2,15,17,29-tetrahydroxy-11-methoxy-3,7,12,14,16,18,22-heptamethyl-6,23-dioxo-8,30-dioxa-24-azatetracyclo[23.3.1.14,7.05,28]triaconta-1(28),2,4,9,19,21,25(29),26-octaen-13-yl acetate] | 1100 | 
COC1/C=C/OC2(C)Oc3c(C)c(O)c4c(O)c(c(C=O)cc4c3C2=O)NC(=O)/C(C)=C\C=C\C(C)C(O)C(C)C(O)C(C)C(OC(C)=O)C1C (stereo not given) [26-formyl-2,15,17,29-tetrahydroxy-11-methoxy-3,7,12,14,16,18,22-heptamethyl-6,23-dioxo-8,30-dioxa-24-azatetracyclo[23.3.1.14,7.05,28]triaconta-1(28),2,4,9,19,21,25(29),26-octaen-13-yl acetate] | 104 | 
COC1/C=C/OC2(C)Oc3c(C)c(O)c4c(O)c(c(CN5CCNCC5)cc4c3C2=O)NC(=O)/C(C)=C\C=C\C(C)C(O)C(C)C(O)C(C)C(OC(C)=O)C1C (stereo not given) [26-hexahydro-1-pyrazinylmethyl-2,15,17,29-tetrahydroxy-11-methoxy-3,7,12,14,16,18,22-heptamethyl-6,23-dioxo-8,30-dioxa-24-azatetracyclo[23.3.1.14,7.05,28]triaconta-1(28),2,4,9,19,21,25(29),26-octaen-13-yl acetate] | 4200 | 1450
